According to US12661355B2, “Compounds and methods for inducing UCP1 expression” (The Regents of the University of California, priority 2020, dated 2026):
“Also recorded” adds a separate entry of the source.

Key:
[1] = molecular target: T1, AKAP1 (Mus musculus, UniProt O08715); assay: Cellular Thermal Shift Assay (CETSA) in brown adipocytes, AKAP1; assay type: binding; conditions: 10 μM for 8 h, heated at 55.8-63.3° C.
T1 construct: from tissue; host or cells: mouse brown adipose tissue (BAT) lysate; also mouse brown adipocyte extracts
T1 sequence (O08715 30-857): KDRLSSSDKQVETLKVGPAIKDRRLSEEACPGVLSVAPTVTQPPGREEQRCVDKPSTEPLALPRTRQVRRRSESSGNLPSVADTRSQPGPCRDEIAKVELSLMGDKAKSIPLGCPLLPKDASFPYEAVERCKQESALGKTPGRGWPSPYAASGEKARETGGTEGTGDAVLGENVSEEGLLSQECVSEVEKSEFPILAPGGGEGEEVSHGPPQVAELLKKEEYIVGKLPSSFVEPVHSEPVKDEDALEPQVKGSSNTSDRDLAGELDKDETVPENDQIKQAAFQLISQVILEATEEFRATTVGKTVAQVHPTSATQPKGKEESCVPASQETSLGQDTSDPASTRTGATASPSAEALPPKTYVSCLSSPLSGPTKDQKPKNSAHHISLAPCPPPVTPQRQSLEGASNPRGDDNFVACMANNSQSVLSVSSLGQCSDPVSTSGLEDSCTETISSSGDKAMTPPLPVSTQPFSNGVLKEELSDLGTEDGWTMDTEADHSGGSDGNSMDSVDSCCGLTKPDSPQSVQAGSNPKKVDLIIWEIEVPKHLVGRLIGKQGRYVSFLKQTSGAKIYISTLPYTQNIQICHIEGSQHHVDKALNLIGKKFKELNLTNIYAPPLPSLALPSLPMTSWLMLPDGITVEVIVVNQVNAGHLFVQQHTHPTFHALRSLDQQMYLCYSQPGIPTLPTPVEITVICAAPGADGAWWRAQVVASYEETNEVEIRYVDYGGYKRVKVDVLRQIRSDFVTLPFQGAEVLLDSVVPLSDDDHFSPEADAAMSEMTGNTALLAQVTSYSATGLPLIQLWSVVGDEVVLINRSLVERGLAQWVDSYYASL
Procedure: (§1) CETSA assays were performed according to known methods. Briefly, differentiated brown adipocytes (one 10 cm dish per treatment) were treated with vehicle or compounds, trypsinized, counted, and re-suspended in approximately 450 μl PBS containing protease inhibitors (volumes were adjusted to have the same number of cells in each treatment). For each sample, 18 μl was distributed into each of 7 PCR tubes. Samples were heated using a thermocycler with a temperature gradient (iCycler, Biorad) for 3 min, followed by 3 min at room temperature, and then snap-frozen in liquid N2. After two freeze-thaw cycles, samples were centrifuged at 20,000 g for 15 min at 4° C., and the supernatants were transferred to another set of tubes. Proteins were analyzed by immunoblotting.
The PKA tetramer consists of two catalytic and two regulatory subunits. In the mouse, these are catalytic subunits C-α and C-β, and regulatory subunits RI and RII, each with α and β isoforms (RI-α, RI-β, RII-α, RII-β). […]
(§2) The potential interaction of Z160 with PKA subunits and AKAPs was assessed first by identifying which PKA subunits and AKAP isoforms are normally present in BAT. […] To perform the CETSA assays, cultured brown adipocytes were incubated with 10 μM Z160 for 8 h, after which the thermal shift was analyzed by Western blot.

[2] = tested on: UCP1; assay: Gene expression in immortalized human white adipocytes; assay type: cell-based; conditions: 10 μM for 4 days
Procedure: Human immortalized brown and white preadipocytes were obtained from Dr. Yu-Hua Tseng (Joslin Diabetes Center, Harvard Medical School, USA). The generation of the two cell lines from human neck adipose tissue biopsies and immortalization was performed as previously described but from a different donor. Cells were cultured in high glucose DMEM supplemented with 10% FBS and antibiotics. Two days after reaching confluence, cells were treated with 30 μM biotin, 500 nM insulin, 17 μM pantothenate, 100 nM dexamethasone, 2 nM 3,3′,5-Triiodo-L-thyronine, 500 μM IBMX, 30 μM indomethacin and 1 μM rosiglitazone, for 12 days. Afterwards, cells were treated with 30 μM biotin, 500 nM insulin, 17 μM pantothenate and 2 nM 3,3′,5-Triiodo-L-thyronine (Maintenance media) for 2 days with end-point assays performed on day 18, and for 5 days with end-point assays performed on day 21, for the brown and white adipocytes cells, respectively.
Mouse RNA levels were measured by qPCR according to known methods. Data were normalized to B2m and Tbp reference genes. Human RNA was extracted using an RNA Mini Plus kit (Zymo) and gene expression determined by Taqman assay. The 1-step qPCR was run on a QuantStudio 12K Flex Real Time PCR System (ThermoFisher) using the following protocol: 50° C. for 5 minutes, 95° C. for 20 seconds, 40 cycles of 95° C. for 15 seconds and 60° C. for 60 seconds. […]

[3] = tested on: p38 MAPK; assay: CETSA in brown adipocytes, p38 MAPK; assay type: binding, mouse; conditions: 10 μM for 8 h
Procedure: as §1, §2

[4] = tested on: NRVM; assay: Hypertrophic gene expression in neonatal rat ventricular myocytes; assay type: cell-based; conditions: 10 μM Z160 concomitantly with 60 μM isoproterenol or 50 μM phenylephrine, 2 days
Procedure: Rat H9c2 cells were grown in DMEM supplemented with 10% FBS, 25 mM glucose, 1 mM pyruvate, and 2 mM glutamine Neonatal rat ventricular myocytes (NRVM) were isolated and cultured as previously described. Briefly, 2-4 day old rats were sacrificed and myocytes and fibroblasts were isolated and separated using a Percoll density gradient. Following isolation, NRVMs were plated on gelatin-coated plates in DMEM containing 10% FBS, 25 mM glucose, 1 mM pyruvate, and 2 mM glutamine The next day, FBS was replaced by 1× insulin-transferrin-selenium supplement and the cells were treated with vehicle or 10 μM Z160 for 2 days, with or without 60 μM isoproterenol or 50 μM phenylephrine.
RNA levels were measured by qPCR according to known methods. Briefly, RNA was extracted with TRIzol (Invitrogen) and reverse transcribed with iScript (Bio-Rad). Real-time PCR analysis was performed with a CFX Connect (Bio-Rad).

[5] = molecular target: T2, cGMP-dependent kinase 1 (PKG-1) (Mus musculus, UniProt P0C605); assay: CETSA in brown adipocytes, PKG-1; assay type: binding; conditions: 10 μM for 8 h
T2 construct: endogenous in cells; host or cells: immortalized mouse brown adipocytes
Procedure: as §1, §2

T2 sequence (P0C605 whole entry): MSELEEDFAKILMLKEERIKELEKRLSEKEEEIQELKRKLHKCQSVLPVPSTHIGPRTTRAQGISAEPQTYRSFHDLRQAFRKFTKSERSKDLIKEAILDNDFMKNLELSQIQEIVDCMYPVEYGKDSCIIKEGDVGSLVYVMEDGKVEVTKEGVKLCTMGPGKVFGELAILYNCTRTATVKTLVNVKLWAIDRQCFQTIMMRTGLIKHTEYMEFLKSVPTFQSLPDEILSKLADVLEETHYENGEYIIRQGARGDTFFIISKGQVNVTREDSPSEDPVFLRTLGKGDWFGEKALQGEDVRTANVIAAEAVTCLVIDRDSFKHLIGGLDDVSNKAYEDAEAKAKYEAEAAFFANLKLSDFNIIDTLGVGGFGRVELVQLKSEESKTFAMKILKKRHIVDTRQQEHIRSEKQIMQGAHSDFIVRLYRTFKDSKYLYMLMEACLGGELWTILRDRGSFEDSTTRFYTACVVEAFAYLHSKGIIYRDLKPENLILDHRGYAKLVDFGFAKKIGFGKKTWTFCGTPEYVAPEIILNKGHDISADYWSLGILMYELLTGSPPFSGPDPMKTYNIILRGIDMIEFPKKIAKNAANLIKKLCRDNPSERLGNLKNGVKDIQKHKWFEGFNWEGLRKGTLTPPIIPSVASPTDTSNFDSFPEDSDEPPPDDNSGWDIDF

Question: Which results are given for `COc1ccc(NC(=O)CSc2nc3ccccc3c(=O)[nH]2)c(OC)c1` [Z160]?
Answer: heat stability of AKAP1 [1]: increased the heat stability; UCP1 expression [2]: 7 fold; expression of CIDEA, ACADM, CPT1B and ELOVL3 [2]: greatly increased expression; heat stability of p38 MAPK [3]: did not influence the heat stability; effect on hypertrophic gene expression profile (Nppa, Nppb, Pln) induced by isoproterenol or phenylephrine [4]: prevented the induction of a hypertrophic gene expression profile; also recorded: reverses the effect of ISO and PE; heat stability of PKG-1 [5]: did not influence the heat stability
